# Read-outs that look alike come from different tables or passages of the source.
# Key:
# acetylcholine [1] = experiment: Test Procedure 7: acetylcholine-induced bronchoconstriction in anesthetized guinea pigs; format: in vivo, guinea pig; conditions: 100 mg/kg p.o.
# Protocol: Guinea pigs, weighing 250-350 g were anesthetized with 1.5 g/kg i.p. of urethane and prepared for measurements of resistance to pulmonary inflation using a slightly modified Konzett-Rossler preparation (see Test Procedure 2). Histamine phosphate (5 μg/kg as base) was injected four times at 5 minute intervals in order to ascertain that the maximum bronchoconstrictor responsiveness has been obtained. Acetylcholine was injected intravenously at […] 5 minutes following the last injection of histamine and the increase in intratracheal pressure was recorded. Compound b or aminophylline (100 mg/kg p.o.) or the control vehicle were administered to five guinea pigs each, 1 hour before the injection of acetylcholine (1/2 hour before the anesthesia).
# serotonin [2] = experiment: Test Procedure 6: serotonin-induced bronchoconstriction in anesthetized guinea pigs; format: in vivo, guinea pig; conditions: iv 5.0 mg/kg; P 0.01
# Protocol: Guinea pigs, weighing 275-340 g, were anesthetized and prepared for measurements of resistance to pulmonary inflation using a slightly modified Konzett-Rossler method (see Test Procedure 2). All guinea pigs received 0.1 mg/kg of propranolol iv and 5 minutes later, 50 mcg/kg of serotonin (creatinine complex) iv. Compound b or cyproheptadine were administered iv just before the injection of propranolol at 50 or 5 mg/kg, respectively. Compound b was prepared as a 5% solution in 5% N-methylglucamine and cyproheptadine as a 0.25% aqueous solution.
# bradykinin [3] = tested on: bradykinin
# Protocol: Antagonism of bradykinin-induced bronchoconstriction in guinea pigs was determined by measuring increases in resistance to artificial pulmonary inflation (Konzett-Rossler preparation). […] Due to large variations in bronchoconstricting responses among individual guinea pigs, each guinea pig serves as its own control and was challenged with bradykinin twice. The second response to bradykinin was expressed as percent of the first response to bradykinin. […] All guinea pigs having a first bradykinin response of less than 12 mm Hg were rejected as poor responders. […] In order to augment the bronchoconstrictor response, each guinea pig received 100 mcg propranolol/kg, iv, 5 minutes before the first injection of bradykinin (30 mcg/kg, iv). […] Five minutes after the injection of a test compound the guinea pigs received the second injection of bradykinin and the peak of the response determined. The effects of both test compounds were expressed as % inhibition of bradykinin-induced increase in bronchial resistance to forced inflation, as compared to the levels of bronchial resistance following iv administration of their respective solvent controls.
# SRS-A [4] = conditions: guinea pigs; cited from earlier work
# SRS-A [5] = experiment: Test Procedure 3: SRS-A-induced increase in resistance to pulmonary inflation in anesthetized cats; format: in vivo, cat
# acetylcholine [6] = conditions: guinea pig, in vivo; cited from earlier work
# serotonin [7] = conditions: guinea pig, in vivo; cited from earlier work
# SRS-A [8] = experiment: Test Procedure 3: SRS-A-induced increase in resistance to pulmonary inflation in anesthetized cats; format: in vivo, cat; remark: listed apart in the source
# Protocol: The trachea of each cat was cannulated, and the cats were artificially respired at 15 strokes/minute with a stroke volume of 22 ml/kg. A side-arm of the intratracheal cannula was connected to a Statham transducer, and the intratracheal pressure was recorded continuously on a polygraph. One femoral vein was cannulated in all cats receiving intravenous administration of drugs. In addition, most of the cats were cannulated through the femoral artery; this cannula was attached to another Statham transducer, and the blood pressure of these cats recorded. All cats received 1.0 mg/kg of propranolol and 0.2 mg/kg of thenyldiamine intravenously 3 minutes before iv injection of SRS-A. SRS-A was obtained from rat peritoneal cavities as described previously in Test Procedure 1. Each pool of rat ip fluid containing SRS-A was dose-ranged and a dose selected that was estimated to cause an average increase in intrapulmonary resistance to inflation in control cats by 4-6 mmHg. Test dose volumes ranged from 1.0 to 2.0 ml/kg, iv. […] Both test compounds and the sodium hydroxide vehicle were injected iv 5 minutes before the injections of SRS-A (2 minutes before the injection of propranolol and thenyldiamine).
# bradykinin [9] = conditions: guinea pigs; cited from earlier work
# SRS-A [10] = experiment: Test Procedure 2: inhibition of SRS-A-induced bronchoconstriction in anesthetized guinea pigs (Konzett-Rossler); format: in vivo, guinea pig; conditions: for inhibition of SRS-A-induced increases in resistance to inflation: intravenous
# From the text: SRS-A was harvested as described in Test Procedure 1 described hereinabove. A slightly modified Konzett-Rossler preparation [Arch. […] Guinea pigs weighing 350 to 450 g were anesthetized ip with 1.5 g/kg urethane. The jugular vein and trachea were cannulated and the guinea pigs were artificially respired at a rate of 40 strokes/minute. […] A side arm of the inflationary air cannula was connected to a pressure transducer and resistance to pulmonary inflation continuously recorded. […] Studies with SRS-A commenced after each guinea pig had attained maximum bronchoconstrictor response to histamine. […] The effects of the test compounds were studied by measuring SRS-A-induced bronchoconstriction side-by-side in two guinea pigs, one medicated and one control. Subsequent medicated/control pairs were alternated on two respiratory pumps. In this manner, the gradual decomposition of SRS-A and differences between the two pump/recorder systems, if any, were controlled. The dose (volume) of each sample of SRS-A was adjusted in each pair to keep the peaks of increases in bronchial resistance in control guinea pigs within 13 to 40 mmHg. Bronchoconstriction following injection of SRS-A was measured two ways; as the peak increase in resistance to inflation and, in view of the occasional irregular bronchoconstriction response curves following injection of SRS-A, as the sum of increases in bronchoconstriction over 10 minutes (pressure/time units). Pressure/time units were calculated by measuring the area under the curve of inflationary resistance where ordinates were set at 10 mm of pen excursion/10 mm pressure Hg and the abscissas were set at 15 mm of paper travel/minute. […] SRS-A-induced bronchoconstriction (increase in resistance) was calculated as the area under the curve and over the normal base line of resistance to inflation. […] The effects of the test compounds upon SRS-A-induced bronchoconstriction were expressed as ratios of the peaks and as ratios of the pressure/time units between the paired medicated and control guinea pigs. The consistency of paired responses to SRS-A in nonmedicated guinea pigs was determined in the same manner, by alternating the ratios of the results of guinea pigs on pumps one and two. […] SRS-A was injected 5 minutes after these latter injections. Compound b was prepared as a solution in 2% N-methylglucamine and used within 3 hours. […] Control guinea pigs received injections of the respective solvent vehicles. In order to compare the activities of compound b following iv and po routes of administration, compound b was also administered orally. […] Control guinea pigs received 2% N-methylglucamine. Fifteen minutes later, the guinea pigs were anesthetized, cannulated, and prepared for injections of SRS-A as described. The procedure was timed so that SRS-A was injected 1 hour after the oral administration of compound b. In a separate experiment, using the same methodology, the duration anti-SRS-A activity of compound b was determined after oral administration. Compound b was finely ground in a tissue homogenizer and prepared as a suspension in 0.5% gum tragacanth. A dose of 10 mg/kg was administered and anti-SRS-A effect studied at 1, 4 and 7 hr postmedication. The ratios of peak increases in intratracheal pressure between paired medicated and control guinea pigs was used to calculate percent inhibition.
# SRS-A [11] = experiment: Test Procedure 1: antagonism of SRS-A-induced bronchoconstriction in unanesthetized guinea pigs; format: in vivo, guinea pig; conditions: for ED50: Cavia porcellus, po, read-out: AED50; for ED50 / Potency (Phenylbutazone = 1) (95% confidence limits): 1 hour before SRS-A; for Potency (Phenylbutazone = 1) (95% confidence limits): p.o.
# Protocol: The test compounds were administered orally to four guinea pigs/group 1 hour before the SRS-A challenge. The test compounds were prepared as suspensions in 1% gum tragacanth. Bronchoconstriction was graded 1+ to 3+ according to severity (1+ denoted restlessness and slight thoracic dyspnea, 2+ denoted moderate thoracic dyspnea and 3+ denoted convulsive dyspnea, regardless of whether the guinea pig died of asphyxiation or recovered).
smiles,measurement,setting,value
"Cn1c(=O)c2[nH]cnc2n(C)c1=O [Aminophylline, aminophylline, reference compound]",% Inhibition,acetylcholine [1],70%
same,"Peak Increase in Intracheal Pressure, mm Hg",acetylcholine [1],7 ± 1 mm Hg
same,effect against acetylcholine-induced bronchoconstriction,acetylcholine [1],inhibition of acetylcholine responses
"CN1CCC(=C2c3ccccc3C=Cc3ccccc32)CC1 [Cyproheptadine, cyproheptadine, reference compound]",Increase in Resistance (mm Hg),serotonin [2],5 ± 1 mm Hg
same,Inhibition %,serotonin [2],89%
CCCCC1C(=O)N(c2ccccc2)N(c2ccccc2)C1=O [Na Phenylbutazone],% Inhibition,bradykinin [3]; iv 1.0 mg/kg,20%
same,Average Increase In Bronchial Resistance (2nd Response in % of 1st Response ± S.E.),bradykinin [3]; iv 1.0 mg/kg,64 ± 12%
same,% Inhibition,bradykinin [3]; iv 3.3 mg/kg,50%
same,Average Increase In Bronchial Resistance (2nd Response in % of 1st Response ± S.E.),bradykinin [3]; iv 3.3 mg/kg,40 ± 9%
same,% Inhibition,bradykinin [3]; iv 10.0 mg/kg,56%
same,Average Increase In Bronchial Resistance (2nd Response in % of 1st Response ± S.E.),bradykinin [3]; iv 10.0 mg/kg,35 ± 11%
same,% Inhibition,bradykinin [3]; iv 33.0 mg/kg,50%
same,Average Increase In Bronchial Resistance (2nd Response in % of 1st Response ± S.E.),bradykinin [3]; iv 33.0 mg/kg,40 ± 7%
"CCCCC1C(=O)N(c2ccccc2)N(c2ccccc2)C1=O [Phenylbutazone, phenylbutazone, reference compound]",effect on SRS-A-induced bronchoconstriction,SRS-A [4],inhibit
same,ED50,"SRS-A [5]; Felis catus, 5 min, intravenous, read-out: iv AED50",16 mg/kg
same,"Max. Increase in Resistance to Pulm. Inflation, mm Hg ± S.E.",SRS-A [5]; intravenous 33.0 mg/kg,0 mm Hg
same,% Inhibition,SRS-A [5]; oral 10.0 mg/kg,25%
same,"Max. Increase in Resistance to Pulm. Inflation, mm Hg ± S.E.",SRS-A [5]; oral 10.0 mg/kg,3.0 ± 0.9 mm Hg
same,% Inhibition,SRS-A [5]; oral 33.0 mg/kg,98%
same,"Max. Increase in Resistance to Pulm. Inflation, mm Hg ± S.E.",SRS-A [5]; oral 33.0 mg/kg,0.1 ± 0.1 mm Hg
same,effect on acetylcholine-induced bronchoconstriction,acetylcholine [6],ineffective
same,effect on serotonin-induced bronchoconstriction,serotonin [7],ineffective
same,inhibition of bradykinin-induced bronchoconstriction,"bradykinin [3]; iv 33 mg/kg, remaining five guinea pigs",further dose-related inhibition
same,inhibition of bradykinin-induced increase in bronchial resistance,bradykinin [3]; iv 3.3 and 10 mg/kg,significantly inhibited
same,% Inhibition,SRS-A [8]; intravenous 10.1 mg/kg,21%
same,"Max. Increase in Resistance to Pulm. Inflation, mm Hg ± S.E.",SRS-A [8]; intravenous 10.1 mg/kg,4.7 ± 1.5 mm Hg
same,inhibition of SRS-A-induced increase in resistance to inflation,SRS-A [8]; intravenous 33 mg/kg,complete inhibition
same,% Inhibition,SRS-A [8]; intravenous 33.0 mg/kg,100%
same,effect on bradykinin-induced bronchoconstriction,bradykinin [9],inhibit
same,% Inhibition (peak increase in resistance),SRS-A [10]; i.v. 1.0 mg/kg,0%
same,% Inhibition (sum of increase in resistance over 10 min),SRS-A [10]; i.v. 1.0 mg/kg,0%
same,% Inhibition (peak increase in resistance),SRS-A [10]; i.v. 3.3 mg/kg,59%
same,% Inhibition (sum of increase in resistance over 10 min),SRS-A [10]; i.v. 3.3 mg/kg,56%
same,% Inhibition (peak increase in resistance),SRS-A [10]; i.v. 10 mg/kg,72%
same,% Inhibition (sum of increase in resistance over 10 min),SRS-A [10]; i.v. 10 mg/kg,81%
same,% Inhibition (peak increase in resistance),SRS-A [10]; i.v. 33 mg/kg,89%
same,% Inhibition (sum of increase in resistance over 10 min),SRS-A [10]; i.v. 33 mg/kg,90%
same,inhibition of SRS-A-induced increases in resistance to inflation,SRS-A [10],inhibited SRS-A-induced increases in resistance to inflation in a dose-related manner
same,inhibition of SRS-A-induced increases in resistance to inflation,SRS-A [10]; 10 and 33 mg/kg,nearly complete inhibition
same,"Incidence of Severe Bronchospasms, %",SRS-A [11]; 1.6 mg/kg p.o.,62%
same,"Incidence of Severe Bronchospasms, No. Bronchosp./No. Tested",SRS-A [11]; 1.6 mg/kg p.o.,47/77
same,"Incidence of Severe Bronchospasms, %",SRS-A [11]; 6.2 mg/kg p.o.,34%
same,"Incidence of Severe Bronchospasms, No. Bronchosp./No. Tested",SRS-A [11]; 6.2 mg/kg p.o.,29/86
same,"Incidence of Severe Bronchospasms, %",SRS-A [11]; 25 mg/kg p.o.,15%
same,"Incidence of Severe Bronchospasms, No. Bronchosp./No. Tested",SRS-A [11]; 25 mg/kg p.o.,21/147
same,"Incidence of Severe Bronchospasms, %",SRS-A [11]; 100 mg/kg p.o.,4%
same,"Incidence of Severe Bronchospasms, No. Bronchosp./No. Tested",SRS-A [11]; 100 mg/kg p.o.,2/46
"O=C(O)C1CCc2c(c3ccccc3n2C(=O)c2ccccc2)C1 (stereo not shown) [a, 9-benzoyl-1,2,3,4-tetrahydrocarbazole-3-carboxylic acid]",ED50,SRS-A [11],10 mg/kg
same,Potency (Phenylbutazone = 1) (95% confidence limits),SRS-A [11],1.1 (0.53.8)
CC(=O)Oc1ccccc1C(=O)O [aspirin],effect on SRS-A-induced bronchoconstriction,SRS-A [4],inhibit
same,effect on acetylcholine-induced bronchoconstriction,acetylcholine [6],ineffective
same,effect on serotonin-induced bronchoconstriction,serotonin [7],ineffective
same,effect on bradykinin-induced bronchoconstriction,bradykinin [9],inhibit
"O=C(O)C1CCCc2c1c1ccccc1n2C(=O)c1ccccc1 (stereo not shown) [c, 9-benzoyl-1,2,3,4-tetrahydrocarbazole-4-carboxylic acid]",ED50,SRS-A [11],0.3 mg/kg
same,Potency (Phenylbutazone = 1) (95% confidence limits),SRS-A [11],16 (6.9-37)
"Cc1ccc(C(=O)n2c3c(c4ccccc42)C(C(=O)O)CCC3)cc1 (stereo not shown) [d, 9-(4-toluoyl)-1,2,3,4-tetrahydrocarbazole-4-carboxylic acid]",ED50,SRS-A [11],5 mg/kg
same,Potency (Phenylbutazone = 1) (95% confidence limits),SRS-A [11],1.7 (0.6-6.8)
"COc1ccc2c(c1)c1c(n2C(=O)c2ccccc2)CCCC1C(=O)O (stereo not shown) [e, 9-benzoyl-6-methoxy-1,2,3,4-tetrahydrocarbazole-4-carboxylic acid]",ED50,SRS-A [11],1 mg/kg
same,Potency (Phenylbutazone = 1) (95% confidence limits),SRS-A [11],18 (5.0-86)
"Cc1ccc2c(c1)c1c(n2C(=O)c2ccccc2)CCCC1C(=O)O (stereo not shown) [f, 9-benzoyl-6-methyl-1,2,3,4-tetrahydrocarbazole-4-carboxylic acid]",ED50,SRS-A [11],1.7 mg/kg
same,Potency (Phenylbutazone = 1) (95% confidence limits),SRS-A [11],6.7 (3.2-16)

# Reference: patent publication US4174402A, “Method for the prophylaxis of SRS-A-induced symptoms” (priority 1978, dated 1979)
